Experimental data: US20250122191A1, “COMPOUNDS AS BCL-2 INHIBITORS” (Fochon Biosciences, Ltd, priority 2021, published 2025)
pIC50: −log10 of the molar value.

Legend:
Type in all cases: cell-based
Toledo cells = test: Cell proliferation assay (MTS), Toledo cells; details: Homo sapiens, 72 h
In short: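 Toledo cells (RPMI-1640, 10% FBS) seeded at 30000 cells/well, rested 4 h, then exposed 72 h at 37 °C, 5% CO2 to compound at nine final concentrations, 1.5–10000 nM. Viability by MTS (2 h), absorbance at 490 nm. IC50 from the concentration-response.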

RS4;11-BCL-2 G101V cells = test: Cell proliferation assay (MTS), RS4;11-BCL-2 G101V engineered cells; details: Homo sapiens, 120 h, read-out: RS4, 11 BCL2-G101V IC50
In short: (§1)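 Proliferation IC50 in RS4;11 lines engineered with BCL-2 mutations, measured by MTS at 490 nm after 72 h (D103E, D103Y) or 120 h (G101V, F104L) compound treatment at 37 °C.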

RS4;11-BCL-2 D103E cells = test: Cell proliferation assay (MTS), RS4;11-BCL-2 D103E engineered cells; details: Homo sapiens, 72 h, read-out: RS4, 11 BCL2-D103E IC50
In short: as §1

Row | SMILES | pIC50 (Toledo cells) | pIC50 (RS4;11-BCL-2 G101V cells) | pIC50 (RS4;11-BCL-2 D103E cells)
1 | COc1cc(CN2CCN(C3CC4(CCN(c5ccc(C(=O)NS(=O)(=O)c6cnc(NC[C@H]7CC[C@](C)(O)CC7)c([N+](=O)[O-])c6)c(Oc6cnc7[nH]cc(F)c7c6)c5)CC4)C3)[C@H](c3ccccc3C(C)C)C2)ccc1C1CC1 [Example 73, 4-(2-((R)-4-(4-cyclopropyl-3-methoxybenzyl)-2-(2-isopropylphenyl)piperazin-1-yl)-7-azaspiro[3.5]nonan-7-yl)-2-((3-fluoro-1H-pyrrolo[2,3-b]pyridin-5-yl)oxy)-N-((6-((((1r,4r)-4-hydroxy-4-methylcyclohexyl)methyl)amino)-5-nitropyridin-3-yl)sulfonyl)benzamide] | 9.00 | 9.00 | 8.52
2 | CCOc1nc2[nH]cc(F)c2cc1Oc1cc(N2CCC3(CC2)CC(N2CCN(Cc4ccc(OC)nc4)C[C@H]2c2ccccc2C(C)C)C3)ccc1C(=O)NS(=O)(=O)c1cnc(NC[C@H]2CC[C@](C)(O)CC2)c([N+](=O)[O-])c1 [Example 120, 2-((6-ethoxy-3-fluoro-1H-pyrrolo[2,3-b]pyridin-5-yl)oxy)-N-((6-((((1r,4r)-4-hydroxy-4-methylcyclohexyl)methyl)amino)-5-nitropyridin-3-yl)sulfonyl)-4-(2-((R)-2-(2-isopropylphenyl)-4-((6-methoxypyridin-3-yl)methyl)piperazin-1-yl)-7-azaspiro[3.5]nonan-7-yl)benzamide] | 9.00 | 9.00 | 9.00
3 | COc1ccc(CN2CCN(C3CC4(CCN(c5ccc(C(=O)NS(=O)(=O)c6cnc(NC[C@H]7CC[C@](C)(O)CC7)c([N+](=O)[O-])c6)c(Oc6cc7c(F)c[nH]c7nc6OC)c5)CC4)C3)[C@H](c3ccccc3C(C)C)C2)nc1 [Example 122, 2-((3-fluoro-6-methoxy-1H-pyrrolo[2,3-b]pyridin-5-yl)oxy)-N-((6-((((1r,4r)-4-hydroxy-4-methylcyclohexyl)methyl)amino)-5-nitropyridin-3-yl)sulfonyl)-4-(2-((R)-2-(2-isopropylphenyl)-4-((5-methoxypyridin-2-yl)methyl)piperazin-1-yl)-7-azaspiro[3.5]nonan-7-yl)benzamide] | 9.00 | 9.00 | 8.52
4 | COc1nc2[nH]cc(F)c2cc1Oc1cc(N2CCC3(CC2)CC(N2CCN(Cc4cnn(C5CC5)c4)C[C@H]2c2ccccc2C(C)C)C3)ccc1C(=O)NS(=O)(=O)c1cnc(NC[C@H]2CC[C@](C)(O)CC2)c([N+](=O)[O-])c1 [Example 133, 4-(2-((R)-4-((1-cyclopropyl-1H-pyrazol-4-yl)methyl)-2-(2-isopropylphenyl)piperazin-1-yl)-7-azaspiro[3.5]nonan-7-yl)-2-((3-fluoro-6-methoxy-1H-pyrrolo[2,3-b]pyridin-5-yl)oxy)-N-((6-((((1r,4r)-4-hydroxy-4-methylcyclohexyl)methyl)amino)-5-nitropyridin-3-yl)sulfonyl)benzamide] | 9.00 | 9.00 | 8.70
5 | CCOc1nc2[nH]cc(F)c2cc1Oc1cc(N2CCC3(CC2)CC(N2CCN(CC)C[C@H]2c2ccccc2C(C)C)C3)ccc1C(=O)NS(=O)(=O)c1cnc(NC[C@H]2CC[C@](C)(O)CC2)c([N+](=O)[O-])c1 [Example 141, 2-((6-ethoxy-3-fluoro-1H-pyrrolo[2,3-b]pyridin-5-yl)oxy)-4-(2-((R)-4-ethyl-2-(2-isopropylphenyl)piperazin-1-yl)-7-azaspiro [3.5]nonan-7-yl)-N-((6-((((1r,4r)-4-hydroxy-4-methylcyclohexyl)methyl)amino)-5-nitropyridin-3-yl)sulfonyl)benzamide] | 9.00 | 9.00 | 9.00
6 | COCCN1CCN(C2CC3(CCN(c4ccc(C(=O)NS(=O)(=O)c5cnc(NC[C@H]6CC[C@](C)(O)CC6)c([N+](=O)[O-])c5)c(Oc5cnc6[nH]cc(F)c6c5)c4)CC3)C2)[C@H](c2ccccc2C(C)C)C1 [Example 203, 2-((3-fluoro-1H-pyrrolo[2,3-b]pyridin-5-yl)oxy)-N-((6-((((1r,4r)-4-hydroxy-4-methylcyclohexyl)methyl)amino)-5-nitropyridin-3-yl)sulfonyl)-4-(2-((R)-2-(2-isopropylphenyl)-4-(2-methoxyethyl)piperazin-1-yl)-7-azaspiro[3.5]nonan-7-yl)benzamide] | 9.00 | 9.00 | 9.00
7 | COc1cc(CN2CCN(C3CC4(CCN(c5ccc(C(=O)NS(=O)(=O)c6cnc(NC[C@H]7CC[C@](C)(O)CC7)c([N+](=O)[O-])c6)c(Oc6cnc7[nH]cc(F)c7c6)c5)CC4)C3)[C@H](c3ccccc3C(C)C)C2)ccn1 [Example 243, 2-((3-fluoro-1H-pyrrolo[2,3-b]pyridin-5-yl)oxy)-N-((6-((((1r,4r)-4-hydroxy-4-methylcyclohexyl)methyl)amino)-5-nitropyridin-3-yl)sulfonyl)-4-(2-((R)-2-(2-isopropylphenyl)-4-((2-methoxypyridin-4-yl)methyl)piperazin-1-yl)-7-azaspiro[3.5]nonan-7-yl)benzamide] | 9.00 | 9.00 | 9.00
8 | COc1ccc(CN2CCN(C3CC4(CCN(c5ccc(C(=O)NS(=O)(=O)c6cnc(NC[C@H]7CC[C@](C)(O)CC7)c([N+](=O)[O-])c6)c(Oc6cnc7[nH]cc(F)c7c6)c5)CC4)C3)[C@H](c3ccccc3C(C)C)C2)c2nc(C)oc12 [Example 244, 2-((3-fluoro-1H-pyrrolo[2,3-b]pyridin-5-yl)oxy)-N-((6-((((1r,4r)-4-hydroxy-4-methylcyclohexyl)methyl)amino)-5-nitropyridin-3-yl)sulfonyl)-4-(2-((R)-2-(2-isopropylphenyl)-4-((7-methoxy-2-methylbenzo[d]oxazol-4-yl)methyl)piperazin-1-yl)-7-azaspiro[3.5]nonan-7-yl)benzamide] | 9.00 | 9.00 | 9.00
9 | CC(C)c1ccccc1[C@@H]1CN(Cc2cnn(C3CC3)c2)CCN1C1CC2(CCN(c3ccc(C(=O)NS(=O)(=O)c4cnc(NC[C@H]5CC[C@](C)(O)CC5)c([N+](=O)[O-])c4)c(Oc4cnc5[nH]cc(F)c5c4)c3)CC2)C1 [Example 247, 4-(2-((R)-4-((1-cyclopropyl-1H-pyrazol-4-yl)methyl)-2-(2-isopropylphenyl)piperazin-1-yl)-7-azaspiro[3.5]nonan-7-yl)-2-((3-fluoro-1H-pyrrolo[2,3-b]pyridin-5-yl)oxy)-N-((6-((((1r,4r)-4-hydroxy-4-methylcyclohexyl)methyl)amino)-5-nitropyridin-3-yl)sulfonyl)benzamide] | 9.00 | 9.00 | 9.00
10 | COc1c(F)cc(CN2CCN(C3CC4(CCN(c5ccc(C(=O)NS(=O)(=O)c6cnc(NC[C@H]7CC[C@](C)(O)CC7)c([N+](=O)[O-])c6)c(Oc6cnc7[nH]cc(F)c7c6)c5)CC4)C3)[C@H](c3ccccc3C(C)C)C2)cc1F [Example 248, 4-(2-((R)-4-(3,5-difluoro-4-methoxybenzyl)-2-(2-isopropylphenyl)piperazin-1-yl)-7-azaspiro[3.5]nonan-7-yl)-2-((3-fluoro-1H-pyrrolo[2,3-b]pyridin-5-yl)oxy)-N-((6-((((1r,4r)-4-hydroxy-4-methylcyclohexyl)methyl)amino)-5-nitropyridin-3-yl)sulfonyl)benzamide] | 9.00 | 9.00 | 8.52
